Experimental data from patent US8871719B2, “Modified MELK peptides and vaccines containing the same” (OncoTherapy Science, Inc., priority 2010, dated 2014).
“Also recorded” adds a separate entry of the source.

Key:
[1] = tested on: peptide-pulsed A24LCL cells; assay: In vitro CTL induction, IFN-gamma ELISPOT assay; assay type: cell-based, human; conditions: for Immunogenicity compared to MELK-A24-9-87_WT: CTL induction from donors B and C; for IFN-gamma production of CTLs (ELISPOT): target cells pulsed with cognate peptide vs not pulsed; for CTL inducibility / CTL activity: in vitro stimulation of T-cells by peptide-loaded DCs
From the text: Monocyte-derived dendritic cells (DCs) were used as antigen-presenting cells (APCs) to induce cytotoxic T lymphocyte (CTL) responses against peptides presented on HLA. DCs were generated in vitro as described elsewhere (Nakahara S et al., Cancer Res 2003 Jul. 15, 63(14): 4112-8). Specifically, peripheral blood mononuclear cells (PBMCs) isolated from three healthy donors termed donors A, B and C (HLA-A*2402 positive) by Ficoll-Plaque (Pharmacia) solution were separated by adherence to a plastic tissue culture dish (Becton Dickinson) so as to enrich them as the monocyte fraction. The monocyte-enriched population was cultured in the presence of 1,000 U/ml of granulocyte-macrophage colony-stimulating factor (GM-CSF) (R&D System) and 1,000 U/ml of interleukin (IL)-4 (R&D System) in AIM-V Medium (Invitrogen) containing 2% heat-inactivated autologous serum (AS). After 7 days of culture, the cytokine-induced DCs were pulsed with 20 micro-g/ml of each of the synthesized peptides in the presence of 3 micro-g/ml of beta2-microglobulin for 3 hrs at 37 degrees C. in AIM-V Medium. The generated cells appeared to express DC-associated molecules, such as CD80, CD83, CD86 and HLA class II, on their cell surfaces (data not shown). These peptide-pulsed DCs were then inactivated by X-irradiation (20 Gy) and mixed at a 1:20 ratio with autologous CD8+ T cells, obtained by positive selection with CD8 Positive Isolation Kit (Dynal). These cultures were set up in 48-well plates (Corning); each well contained 1.5×10^4 peptide-pulsed DCs, 3×10^5 CD8+ T cells and 10 ng/ml of IL-7 (R&D System) in 0.5 ml of AIM-V/2% AS medium. 3 days later, these cultures were supplemented with IL-2 (CHIRON) to a final concentration of 20 IU/ml. On days 7 and 14, the T cells were further stimulated with the autologous peptide-pulsed DCs. The DCs were prepared each time by the same way described above. CTLs were tested against peptide-pulsed A24LCL cells after the 3rd round of peptide stimulation on day 21 (Tanaka H et al., Br J Cancer 2001 Jan. 5, 84(1): 94-9; Umano Y et al., Br J Cancer 2001 Apr. 20, 84(8): 1052-7; Uchida N et al., Clin Cancer Res 2004 Dec. 15, 10(24): 8577-86; Suda T et al., Cancer Sci 2006 May, 97(5): 411-9; Watanabe T et al., Cancer Sci 2005 August, 96(8): 498-506).
(§1) Specifically, peptide-pulsed A24LCL (1×10^4/well) and tumor cell lines (5×10^4/well) were prepared as stimulator cells. Cultured cells in 48 wells, CTL lines and clones were used as responder cells. IFN-gamma ELISPOT assay and IFN-gamma ELISA assay were performed under manufacture procedure.

[2] = tested on: peptide-pulsed A24LCL cells; assay: CTL lines, IFN-gamma ELISA assay; assay type: cell-based, human
Description: CTLs were expanded in culture using the method similar to the one described by Riddell et al. (Walter E A et al., N Engl J Med 1995 Oct. 19, 333(16): 1038-44; Riddell S R et al., Nat Med 1996 Feb. 2(2): 216-23). A total of 5×10^4 CTLs were suspended in 25 ml of AIM-V/5% AS medium with 2 kinds of human B-lymphoblastoid cell lines, inactivated by MMC, in the presence of 40 ng/ml of anti-CD3 monoclonal antibody (Pharmingen). One day after initiating the cultures, 120 IU/ml of IL-2 were added to the cultures. The cultures were fed with fresh AIM-V/5% AS medium containing 30 IU/ml of IL-2 on days 5, 8 and 11 (Tanaka H et al., Br J Cancer 2001 Jan. 5, 84(1): 94-9; Umano Y et al., Br J Cancer 2001 Apr. 20, 84(8): 1052-7; Uchida N et al., Clin Cancer Res 2004 Dec. 15, 10(24): 8577-86; Suda T et al., Cancer Sci 2006 May, 97(5): 411-9; Watanabe T et al., Cancer Sci 2005 August, 96(8): 498-506).
as §1

[3] = tested on: peptide-pulsed A24LCL cells; assay: CTL clones, IFN-gamma ELISA assay; assay type: cell-based, human; conditions: for IFN-gamma production of CTL clones (ELISA): donor B
Description: The dilutions were made to have 0.3, 1, and 3 CTLs/well in 96 round-bottomed micro titer plate (Nalge Nunc International). CTLs were cultured with 1×10^4 cells/well of 2 kinds of human B-lymphoblastoid cell lines, 30 ng/ml of anti-CD3 antibody, and 125 U/ml of IL-2 in a total of […] of AIM-V Medium containing 5% AS. 50 micro-1/well of IL-2 were added to the medium 10 days later so to reach a final concentration of 125 U/ml IL-2. CTL activity was tested on the 14th day, and CTL clones were expanded using the same method as described above (Uchida N et al., Clin Cancer Res 2004 Dec. 15, 10(24): 8577-86; Suda T et al., Cancer Sci 2006 May, 97(5): 411-9; Watanabe T et al., Cancer Sci 2005 August, 96(8): 498-506).
as §1

[4] = tested on: T47D (MELK+, A24−) and KP-1N (MELK+, A24−); assay: Specific CTL activity against tumor cell lines expressing MELK but not HLA-A*2402; assay type: cell-based, human; conditions: T47D and KP-1N (MELK+, A24−)
Description: (§2) TISI, human leukocyte antigen (HLA)-A*2402 positive B-lymphoblastoid cell line, was purchased from the IHWG Cell and Gene Bank (Seattle, Wash.). COS7, MDA-MB-435S and T47D were purchased from ATCC. KLM-1 and KP-1N were purchased from RIKEN cell bank and JCRB cell bank, respectively.
as §1

[5] = tested on: tumor cell lines MDA-MB-4355 (MELK+, A24+) and KLM-1 (MELK+, A24+); assay: Specific CTL activity against tumor cell lines expressing MELK and HLA-A*2402; assay type: cell-based, human; conditions: for IFN-gamma production / CTL activity of CTL clone against KLM-1: KLM-1 (MELK+, A24+) compared with KP-1N
Description: as §2, §1

[6] = tested on: COS7 cells transfected with MELK and HLA-A*2402; assay: Specific CTL activity against transfected COS7 cells; assay type: cell-based
Description: as §1
The cDNA encoding an open reading frame of target gene or HLA-A*2402 was amplified by PCR. The PCR-amplified products were cloned into pCAGGS vector. The plasmids were transfected into COST, which is the target genes and HLA-A24 negative cell line, using lipofectamine 2000 (Invitrogen) according to the manufacturer's recommended procedures. After 2 days from transfection, the transfected cells were harvested with versene (Invitrogen) and used as stimulator cells (5×10^4 cells/well) for CTL activity assay.

[7] = donor B, target cells pulsed with MELK-A24-9-87_WT vs irrelevant HIV peptide
[8] = target cells pulsed with MELK-A24-9-87_WT vs irrelevant HIV peptide
[9] = donor C, target cells pulsed with MELK-A24-9-87_WT vs irrelevant HIV peptide
[10] = donor A, target cells pulsed with cognate peptide vs without peptide pulse

Row | Sequence | Immunogenicity compared to MELK-A24-9-87_WT [1] | IFN-gamma production of CTLs (ELISPOT) ([1]; donor B) | CTL inducibility / CTL activity [1] | IFN-gamma production of CTL lines (ELISA) [2, 7] | IFN-gamma production of CTL clones (ELISA) [3, 8] | IFN-gamma production of CTL lines (ELISA) [2, 10] | other results
1 | EYMPGGELF [MELK-A24-9-87_3M] | superior immunogenicity | potent IFN-gamma production; also recorded: potential IFN-gamma productive ability | significant and specific CTL activity; also recorded: CTLs were successfully established | potent IFN-gamma production | potent IFN-gamma production |  | CTL inducibility / CTL activity ([1]; listed as 41): particularly strong CTL inducibility
2 | DYIISQDRL [SEQ ID NO: 2] |  |  |  |  |  |  | IFN-gamma production of CTLs (ELISPOT) ([1]; donor A, listed as MELK-A24-9-96): typical negative data; also recorded: specific IFN-gamma production was not shown
3 | EYCPGGNLF [MELK-A24-9-87_7N] | superior immunogenicity | potent IFN-gamma production; also recorded: potential IFN-gamma productive ability | significant and specific CTL activity; also recorded: CTLs were successfully established | potent IFN-gamma production | potent IFN-gamma production |  | CTL activity of CTL line against tumor cell lines [4]: without showing CTL activity; IFN-gamma production of CTLs (ELISPOT) ([1]; donor C): potent IFN-gamma production; also recorded: potential IFN-gamma productive ability; CTL inducibility / CTL activity ([1]; listed as 44): particularly strong CTL inducibility; IFN-gamma production of CTL lines (ELISA) [2, 9]: peptide specific IFN-gamma production; also recorded: IFN-gamma production was detected; IFN-gamma production / CTL activity of CTL clone against KLM-1 [5]: specific CTL activity; CTL activity of CTL line against tumor cell lines ([5]; MDA-MB-4355 and KLM-1 (MELK+, A24+)): potent CTL activity; also recorded: specific CTL activity; IFN-gamma production of CTL clone (ELISA) [3, 9]: potent IFN-gamma production
4 | VYKRLVEDIL [SEQ ID NO: 23] |  |  | significant and specific CTL activity |  |  | potent IFN-gamma production | IFN-gamma production of CTLs (ELISPOT) ([1]; donor A, listed as MELK-A24-10-637): potent IFN-gamma production; also recorded: potential IFN-gamma productive ability
5 | KYCPGGELF [MELK-A24-9-87_1K] | superior immunogenicity | potent IFN-gamma production; also recorded: potential IFN-gamma productive ability | significant and specific CTL activity; also recorded: CTLs were successfully established | potent IFN-gamma production | potent IFN-gamma production |  | CTL inducibility / CTL activity ([1]; listed as 35): particularly strong CTL inducibility
6 | EYCPGGELF [MELK-A24-9-87_WT] |  | no specific IFN-gamma production was detected; also recorded: peptide specific IFN-gamma production was not detected | significant and specific CTL activity |  |  | potent IFN-gamma production | Specific CTL activity of CTL clone against controls ([6]; COS7 cells expressing either HLA-A*2402 or MELK): no significant specific CTL activity; Specific CTL activity of CTL clone ([6]; COS7 cells transfected with both MELK and HLA-A*2402): potent CTL activity; also recorded: specific CTL activity; IFN-gamma production of CTLs (ELISPOT) ([1]; donor A): potent IFN-gamma production; also recorded: potential IFN-gamma productive ability; IFN-gamma production of CTL lines (ELISA) [2, 9]: no IFN-gamma production; also recorded: CTL line was not established; IFN-gamma production of CTL clone (ELISA) ([3]; donor A, target cells pulsed with cognate peptide vs not pulsed): potent IFN-gamma production
7 | TANKIFMVL [SEQ ID NO: 21] |  |  |  |  |  |  | IFN-gamma production of CTLs (ELISPOT) ([1]; donor A, listed as MELK-A24-9-78): potent IFN-gamma production; also recorded: potential IFN-gamma productive ability
8 | LYVLMCGFL [SEQ ID NO: 1] |  |  |  |  |  | potent IFN-gamma production | IFN-gamma production of CTLs (ELISPOT) ([1]; donor A, listed as MELK-A24-9-199): potent IFN-gamma production; also recorded: potential IFN-gamma productive ability; IFN-gamma production / CTL activity of CTL clone against KLM-1 [5]: no IFN-gamma production; IFN-gamma production of CTL clone (ELISA) ([3]; donor A, target cells pulsed with cognate peptide vs not pulsed, listed as MELK-A24-9-199): potent IFN-gamma production; also recorded: had the ability to recognize the peptide-pulsed target cells
